Test results: US10864252B2, “Anti-SSX-2 T cell receptors and related materials and methods of use” (The United States of America, as represented by the …, priority 2010, dated 2020)

Test system: mel1300 cells
Test: IFN-γ release, SSX-2 TCR PBL co-cultured with mel1300 cells with DAC
Format: cell-based
Conditions: 0.1 μM or 1.0 μWI DAC; PBLs from three donors; FIG. 12
Protocol: SSX-2 TCR-transduced PBLs from three donors were co-cultured with mel1300 cells without DAC or with 0.1 μM or 1.0 μWI DAC.

Nc1ncn([C@H]2C[C@H](O)[C@@H](CO)O2)c(=O)n1 [DAC, 5-aza-2′-deoxycytidine]
effect on recognition of mel1300 cells (IFN-γ): enhances the recognition of mel1300 cells by SSX2-TCR engineered PBL
